Measurements from patent US20090041617A1, “PURIFIED HYDROGEN PEROXIDE GAS MICROBIAL CONTROL METHODS AND DEVICES” (priority 2007, published 2009).
Like-named read-outs stand apart in the source and are kept apart here.

Assays:
[1] = test system: Geobacillus Stearothermophilus
Excerpt: (§1) The device was subjected to tests designed and implemented by two accredited laboratories to: (a) measure the output of Purified Hydrogen Peroxide Gas (PHPG); (b) confirm that the output was substantially free of ozone; (c) confirm that the output was substantially free of VOC's; (d) measure the efficacy of PHPG against the Feline Calicivirus (an EPA-approved substitute for noroviruses), Methicillin Resistant Staphylococcus Aureous (MRSA), Vancomyacin Resistant Enterococcus Faecalis (VRE), Clostridium Difficile (C-Diff), Geobacillus Stearothermophilus, (a stable bacteria used by the insurance industry to verify successful microbial remediation), and Aspergillus Niger (a common fungus); and (e) test at a variety of ambient relative humidities including 35% to 40% at 70 to 72 degrees Fahrenheit, 56% to 59% at 81 to 85 degrees Fahrenheit, and 98% at 78 degrees Fahrenheit.

[2] = test system: C. difficile (ATCC 700792); conditions: for Average CFU/Test carrier (Survivors in the test) / Percent Reduction Compared to Corresponding Natural Die-off / Percent Reduction as Compared to Time Zero Control: PHPG 0.005-0.01 ppm, 35%-40% relative humidity
Excerpt: as §1
(§2) In quantitative microbial testing at ATS labs in Eagan, Minn. the following data was collected.

[3] = test system: A. niger (ATCC 16404); conditions: for Average CFU/Test carrier (Survivors in the test) / Percent Reduction Compared to Corresponding Natural Die-off / Percent Reduction as Compared to Time Zero Control: PHPG 0.005-0.01 ppm, 35%-40% relative humidity
Excerpt: as §1, §2

[4] = test system: MRSA (ATCC 33592); conditions: for Average CFU/Test carrier (Survivors in the test) / Percent Reduction Compared to Corresponding Natural Die-off / Percent Reduction as Compared to Time Zero Control: PHPG 0.005-0.01 ppm, 35%-40% relative humidity
Excerpt: as §1, §2

[5] = test system: VRE (ATCC 51575); conditions: for Average CFU/Test carrier (Survivors in the test) / Percent Reduction Compared to Corresponding Natural Die-off / Percent Reduction as Compared to Time Zero Control: PHPG 0.005-0.01 ppm, 35%-40% relative humidity
Excerpt: as §1, §2

[6] = test system: Feline Calicivirus (Norovirus substitute); conditions: for Average Virus Infectivity Observed After Exposure / Percent Reduction Compared to Corresponding Natural Die-off / Percent Reduction as Compared to Time Zero Virus Control: PHPG 0.005-0.01 ppm, 35%-40% relative humidity
Excerpt: as §1, §2

[7] = PHPG about 0.005 ppm to about 0.10 ppm in the environment

For `OO` [PHPG, Purified Hydrogen Peroxide Gas], the efficacy in words [1, 7] was “proven effective”, the “reduction of the bacteria on inoculated chips” value ([1]; several tests, all cases, within a matter of hours) was “significant reduction” and the “Average CFU/Test carrier (Survivors in the test)” value (“Average CFU/Test carrier” below) ([2]; 2 hours) was 2.18 × 10^5 CFU/ CFU/Carrier. For the same compound, the “Percent Reduction Compared to Corresponding Natural Die-off” value ([2]; 2 hours) was 9.2%, the “Percent Reduction as Compared to Time Zero Control” value ([2]; 2 hours) was 27.3% and the “Average CFU/Test carrier” value ([2]; 6 hours) was 1.1 × 10^5 CFU/ CFU/Carrier. The “Percent Reduction Compared to Corresponding Natural Die-off” value ([2]; 6 hours) was 60.6%, the “Percent Reduction as Compared to Time Zero Control” value ([2]; 6 hours) was 63.3% and the “Average CFU/Test carrier” value ([2]; 24 hours) was 7.3 × 10^4 CFU/ CFU/Carrier. For the same compound, the “Percent Reduction Compared to Corresponding Natural Die-off” value ([2]; 24 hours) was 70.4%, the “Percent Reduction as Compared to Time Zero Control” value ([2]; 24 hours) was 75.7% and the efficacy in words [2, 7] was “proven effective”. For the same compound, the “Average CFU/Test carrier” value ([3]; 2 hours) was 1.9 × 10^5 CFU/ CFU/Carrier, the “Percent Reduction Compared to Corresponding Natural Die-off” value ([3]; 2 hours) was 13.6% and the “Percent Reduction as Compared to Time Zero Control” value ([3]; 2 hours) was 19.1%. For the same compound, the “Average CFU/Test carrier” value ([3]; 6 hours) was 4.67 × 10^4 CFU/ CFU/Carrier, the “Percent Reduction Compared to Corresponding Natural Die-off” value ([3]; 6 hours) was 81.3% and the “Percent Reduction as Compared to Time Zero Control” value ([3]; 6 hours) was 80.1%. The “Average CFU/Test carrier” value ([3]; 24 hours) was 1.2 × 10^4 CFU/ CFU/Carrier, the “Percent Reduction Compared to Corresponding Natural Die-off” value ([3]; 24 hours) was 90.8% and the “Percent Reduction as Compared to Time Zero Control” value ([3]; 24 hours) was 94.9%. The efficacy in words [3, 7] was “proven effective”, the “Average CFU/Test carrier” value ([4]; 2 hours) was <1 (no survivors) CFU/Test carrier and the “Percent Reduction Compared to Corresponding Natural Die-off” value ([4]; 2 hours) was >99.9999%. For the same compound, the “Percent Reduction as Compared to Time Zero Control” value ([4]; 2 hours) was >99.9999%, the “Average CFU/Test carrier” value ([4]; 6 hours) was <1 (no survivors) CFU/Test carrier and the “Percent Reduction Compared to Corresponding Natural Die-off” value ([4]; 6 hours) was >99.9999%. For the same compound, the “Percent Reduction as Compared to Time Zero Control” value ([4]; 6 hours) was >99.9999%, the “Average CFU/Test carrier” value ([4]; 24 hours) was <1 (no survivors) CFU/Test carrier and the “Percent Reduction Compared to Corresponding Natural Die-off” value ([4]; 24 hours) was >99.9999%. The “Percent Reduction as Compared to Time Zero Control” value ([4]; 24 hours) was >99.9999%, the efficacy in words [4, 7] was “proven effective” and the “Average CFU/Test carrier” value ([5]; 2 hours) was <1 (no survivors) CFU/Test carrier. For the same compound, the “Percent Reduction Compared to Corresponding Natural Die-off” value ([5]; 2 hours) was >99.999%, the “Percent Reduction as Compared to Time Zero Control” value ([5]; 2 hours) was >99.9999% and the “Average CFU/Test carrier” value ([5]; 6 hours) was <1 (no survivors) CFU/Test carrier. For the same compound, the “Percent Reduction Compared to Corresponding Natural Die-off” value ([5]; 6 hours) was >99.99%, the “Percent Reduction as Compared to Time Zero Control” value ([5]; 6 hours) was >99.9999% and the “Average CFU/Test carrier” value ([5]; 24 hours) was <1 (no survivors) CFU/Test carrier. The “Percent Reduction Compared to Corresponding Natural Die-off” value ([5]; 24 hours) was >99.9%, the “Percent Reduction as Compared to Time Zero Control” value ([5]; 24 hours) was >99.9999% and the efficacy in words [5, 7] was “proven effective”. For the same compound, the efficacy in words [6, 7] was “proven effective”, the “Average Virus Infectivity Observed After Exposure” value ([6]; exposure 2 hrs) was 4.3 log10 and the “Percent Reduction Compared to Corresponding Natural Die-off” value ([6]; exposure 2 hrs) was 96.8%. The “Percent Reduction as Compared to Time Zero Virus Control” value ([6]; exposure 2 hrs) was 99.5%, the “Average Virus Infectivity Observed After Exposure” value ([6]; exposure 6 hrs) was 2.3 log10 and the “Percent Reduction Compared to Corresponding Natural Die-off” value ([6]; exposure 6 hrs) was 99.8%. For the same compound, the “Percent Reduction as Compared to Time Zero Virus Control” value ([6]; exposure 6 hrs) was 99.995%, the “Percent Reduction Compared to Corresponding Natural Die-off” value ([6]; exposure 24 hrs) was 99.8% and the “Percent Reduction as Compared to Time Zero Virus Control” value ([6]; exposure 24 hrs) was “≧99.9999%”. The “Average Virus Infectivity Observed After Exposure” value ([6]; exposure 24 hrs, virus detected in only one replicate) was “≦0.6 log10”.
